Experimental data: patent US9034793B2, “Use of ribose to enhance plant growth” (Bioenergy, Inc., priority 2002, dated 2015)
Where “and” joins values, the source holds several entries; their conditions need not be identical. Equal entries are not always repeated.

What was measured:
cut flower = conditions: storage solution containing the compound; cited from earlier work
[1] = test system: plants grown from seed (5 seeds per plot); test: Plant feeding with ribose for growth (Table 1); format: in vivo, Hosta (H. plantaginea grandiflora)
Text: (§1) Hosta (H. plantaginea grandiflora) plants were transplanted. The protocol was designed such that half of the plants were supplied with water alone and half of the plants received a ribose based solution, in which powdered D-ribose was mixed in water. All plants were transplanted at the same level in the soil and in like soil. All plants were watered at the same times of day, mid-morning and at dusk. Each plant received the same amount of water/watering (½ liter water at each watering). Results of plant growth data following transplantation are graphically depicted in FIGS. 1 and 2. [table]

beans (B) = test: Transplants in garden, growth and hardening after transplantation: beans; format: in vivo, bean
Text: as §1

kohlrabi (K) = test: Transplants in garden, growth and hardening after transplantation: kohlrabi; format: in vivo
Text: as §1

bean seeds [2] = test: Root growth assessment (Example 3); format: in vivo; conditions: Week 1 following seed implantation
Text: Identical sized pots, containing the same consistency of soil media, were used in assessing root growth. Bean seeds of similar size were chosen. One seed was planted in each pot. The depth in the soil for each seed that was planted was the same. Paired pots (total of 3 pairs, 6 pots), each containing one bean seed, were used. One pair of pots received 2 teaspoons of water every other day (Group A). The second pair of pots received a low Ribose solution (1 teaspoon of D-ribose in 16 oz of water), each pot received 2 teaspoons of this low dose of Ribose every other day (Group B). The final pair of pots received a higher dose of Ribose (1 teaspoon of D-ribose in 4 oz of water), each pot received 2 teaspoons of this higher dose of Ribose every other day (Group C). In each pair of pots, roots were examined at week 1 and 2, by removing the roots of one pot only in each group at the designed test time point with soil emersion in a bucket of water. At week 2 all remaining pots had shoots emerging from the top soil. The roots were weighed and measured for length. […] This discrepancy expanded when the roots were analyzed at 2 weeks. […] The weight of the roots treated with high dose Ribose were appreciably less in weight than both the water and low dose Ribose treated groups.

bean seeds [3] = test: Fertilization with ribose combined with nitrogen, phosphorus, potassium; format: in vivo; conditions: ribose combined with the fertilizers nitrogen, phosphorus, and potassium
Protocol: D-ribose plus nitrogen, nitrogen alone, or placebo was administered to bean seeds and measurements of growth and yield was made as in Example 2. D-ribose plus phosphorus, phosphorus alone, or placebo was administered to bean seeds and measurements of growth and yield was made as in Example 2. D-ribose plus potassium, potassium alone, or placebo was administered to bean seeds and measurements of growth and yield was made as in Example 2. D-ribose plus the combination, the combination alone, or placebo was administered to bean seeds and measurements of growth and yield was made as in Example 2.

[4] = 29-Sep, first measure after transplant

CCSC[C@@H](O)[C@@H](O)[C@@H](O)C=O [5-deoxy-5-ethylthio-D-ribose]
Bloom life of a cut flower (cut flower): extend bloom life

O=C[C@H](O)[C@H](O)[C@H](O)CO [R4, ribose]
Plant measures, Mean ([1]; 23 June, 5 seeds per plot): 8.45 inches
Unsprouted ([1]; 23 June, of 5 seeds per plot): 0
Plant measures, measured to the Y, single plants ([1]; 23 June, planted 4 June, 2 tablespoons every other day (3x per week)): 6.5 inches and 8 inches and 8.25 inches and 9.5 inches and 10 inches
#Plants/blossom ([1]; Measured 8 July): 5
Plant measures, Mean ([1]; Measured 8 July): 11.1 inches
Plant measures, measured to the Y, single plants ([1]; Measured 8 July): 8.75 inches and 10 inches and 10.5 inches and 11.75 inches and 12 inches
Bean measure to the Y (beans (B); 1-Nov, after transplant): 10 cm and 13 cm
Bean overall height (beans (B); 1-Nov, after transplant): 27 cm and 30 cm
Bean measure to the Y (beans (B); 9-Sep, before moving): 6 cm and 8 cm
Bean overall height (beans (B); 9-Sep, before moving): 21 cm and 22 cm
Bean measure to the Y (beans (B); 19-Oct, after transplant): 8.75 cm and 12 cm
Bean overall height (beans (B); 19-Oct, after transplant): 26 cm and 28 cm
Bean measure to the Y (beans (B); [4]): 7.5 cm and 10.5 cm
Bean overall height (beans (B); [4]): 24 cm and 26 cm
Kohlrabi plant measure (kohlrabi (K); 1-Nov, after transplant): 16.5 and 19 and 22 and 21 and 15
Kohlrabi plant measure (kohlrabi (K); 9-Sep, before moving): 12 and 13 and 17 and 11
Kohlrabi plant measure (kohlrabi (K); 19-Oct, after transplant): 15 and 18 and 19.5 and 20 and 14.5
Kohlrabi plant measure (kohlrabi (K); [4]): 14 and 16 and 19 and 19.5 and 13

O=C[C@H](O)[C@H](O)[C@H](O)CO [Ribose, D-ribose]
Root Length (bean seeds [2]): slightly shorter in length
Root Weight (bean seeds [2]): heavier
Improvement over solutions of ribose alone (bean seeds [3]): slight incremental improvements
